Data taken from patent US8206756B2, “Herbal composition for inflammatory disorders” (Piramal Life Sciences Limited, priority 2005, dated 2012).

How the values were obtained:
[1] = test system: E-Selectin; test: Cell-ELISA for adhesion molecule expression in HUVECs: E-Selectin; assay type: cell-based; conditions: Homo sapiens; TNF-α-induced surface expression, HUVEC
Experimental: (§1) The assay was designed on the basis of reference Transplantation, Vol 63(5), 759-764, 1997 with modifications.
(§2) Human Umbilical Vein Endothelial Cells (HUVECs) were obtained from Cascade Biologics and were maintained in M200 (Cascade Biologics, Portland, Oreg.) supplemented with low serum growth supplement (LSGS) at 37° C. in a 5% CO2 incubator. U937 cells (ATCC, Manassas, Va.) were grown in the RPMI 1640 medium supplemented with 10% FBS (Hyclone, Logan, Utah). Recombinant human TNFα, antibodies to VCAM-1, ICAM-1, E-Selectin were obtained from R&D Systems and LPS was obtained from Sigma (St. Louis, Mo.).
(§3) HUVECs were plated at […] in 96-well fibronectin-coated plates. The cells were stimulated with TNF-α (10 ng/ml) or LPS (1 μg/ml), 30 min after addition of test compound. After stimulation, cells (E-Selectin and ICAM-1) were fixed with paraformaldehyde in phosphate buffer saline (PBS). Non specific binding was blocked by 2% bovine serum albumin (BSA) in phosphate buffer saline (PBS) for 1 h, and the cells were incubated with primary antibody for 2 h. […] After washing, seven times, 3,3′5,5′-tetramethylbenzidine liquid substrate (TMB substrate) was added and the optical density of each well was determined at 450 nm using a microtitre plate reader (Spectramax, Molecular Devices, Calif.). […] Percent inhibition of the test sample compared to the control is evaluated. […]

[2] = test system: TNF-α; test: LPS-induced TNF-α release in BALB/c mice; assay type: in vivo; conditions: LPS 1 mg/kg i.p., plasma
Experimental: The protocol described by Fukuda T. et al (Eur. J. Pharmacol., 391: 317-320, (2000)) was followed. BALB/c mice were divided into groups of ten each. The test sample, suspended in Tween 80 and 0.5% carboxy methylcellulose (CMC), was orally (p.o.) administered to the mice. One hour later, LPS dissolved in sterile, pyrogen-free saline was administered i.p. at the dose of 1 mg/kg. The negative control group received saline as an i.p injection, while all other groups received LPS. Rolipram (30 mg/kg, p.o.) was used as the standard drug. One and a half hours later, under urethane anaesthesia (1.5 g/kg, i.p.) blood was collected from the abdominal artery using a 1 ml syringe flushed with heparin (500 IU/ml). Heparin (5 μl) was used as an anticoagulant in the blood collection tubes. Plasma was separated by centrifugation at 10000 rpm at room temperature, aliquoted and stored at −70° C. until analysis. TNF-α levels in the blood samples were assayed using ELISA and percent inhibition of TNF-α release compared to the control group was calculated.

[3] = test system: TNF-α; test: LPS-induced TNF-α production in hPBMCs (ELISA); assay type: cell-based; conditions: Homo sapiens; LPS-stimulated hPBMC
Experimental: Primary screening—Human peripheral blood mononuclear cells (hPBMCs). TNF-α production by lipopolysaccharides (LPS) in hPBMCs was measured according to the method described by Jansky, L. et al (Physiol. Res. 52: 593-598, (2003)). Blood was collected from healthy donors into Potassium EDTA vacutainer tubes (BD vacutainer). The PBMCs were isolated using gradient centrifugation in Histopaque-1077 solution (Sigma). Isolated PBMCs were suspended in RPMI 1640 culture medium (Gibco BRL, Pasley, UK) containing 10% fetal bovine serum (FBS) (Hyclone, Utah, USA), 100 U/ml penicillin (Sigma Chemical Co. St Louis, Mo.) and 100 μg/ml streptomycin (Sigma Chemical Co. St Louis, Mo.). The cell concentration was adjusted to 1×10^6 cells/ml. The viability as determined by trypan blue dye exclusion was uniformly ≧98%. The cell suspension (100 μl) was added to the wells of a 96-well culture plate. Following cell plating, 79 μl of the culture medium and 1 μl of eight different concentrations of the test samples (final concentration 0.03, 0.1, 0.3, 1, 3, 10, 30, 100 μg/ml) dissolved in DMSO (dimethylsulfoxide, Sigma, Mo., USA) were added to the cells. The final concentration of DMSO was adjusted to 0.5%. The vehicle (0.5% DMSO) was used as control. Rolipram (100, 300 μM) was used as a standard. The plates were incubated for 30 min at 37° C. in an atmosphere of 5% CO2. Finally, 20 μl (10 μg/ml) per well of LPS, (Escherchia coli 0127:B8, Sigma Chemical Co., St. Louis, Mo.) was added, for a final concentration of 1 μg/ml. […] The % inhibition was recorded. Percent cytotoxicity of the test samples compared to control was evaluated.
The effect of the plant extract on the proinflammatory cytokines: TNF-α, interleukin-1β (IL-1β), interleukin-6 (IL-6) and interleukin-8 (IL-8) was measured using the supernatants generated in the primary screening assay. […]
The effect of the Compound 1, on the proinflammatory cytokines: TNF-α interleukin-1β (IL-1β), interleukin-6 (IL-6) and interleukin-8 (IL-8) was measured using the supernatants generated in the primary screening assay. […]

[4] = test system: VCAM-1; test: Cell-ELISA for adhesion molecule expression in HUVECs: VCAM-1; assay type: cell-based; conditions: Homo sapiens; TNF-α-induced surface expression, HUVEC
Experimental: as §1, §2, §3

- IC50 [1]: 200 nM
- IC50 [3]: 700 nM
- IC50 [4]: 400 nM
SMILES: C=C1C(=O)OC2C3=C(C)CCCC3(C)CCC12O (stereo not drawn) [Compound 1, 3a-hydroxy-5a,9-dimethyl-3-methylene-3a,4,5,5a,6,7,8,9b-octahydro-3H-naphtho[1,2-b]furan-2-one]
- % inhibition of TNF-α release ([2]; 10 mg/kg p.o.): 28.69 ± 13.71%
- % inhibition of TNF-α release ([2]; 30 mg/kg p.o.): 39.98 ± 10.32%
- % inhibition of TNF-α release ([2]; 100 mg/kg p.o.): 87.10 ± 3.67%
